Measurements taken from patent US20070049593A1 (priority 2004, published 2007).
Structures can show the parent of a compound that is named as a salt.

target: T1, HCV polymerase (Hepatitis C virus genotype 1b, UniProt P26663); assay: biochemical; parameters: species or system HCV BK strain
T1 construct: a region encoding NS5B (J Virol 1991 March, 65(3), 1105-13, 544 amino acids after deletion of 47 amino acids on the C-terminal); 6xHis (C); made in house; host or cells: Escherichia coli
Outline: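 Recombinant HCV BK-strain NS5B (C-terminal 47 aa deleted, His6-tagged, E. coli), 0.5 μg/ml, run with 5 μg/ml in vitro-transcribed RNA template (polyU/3′X), ATP/GTP/CTP 50 μM, UTP 2 μM plus [3H]UTP, pH 7.5, 25° C, 90 min. TCA-precipitated RNA counted by scintillation; IC50 from activity with vs without compound.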

T1 sequence (P26663 2420-2963): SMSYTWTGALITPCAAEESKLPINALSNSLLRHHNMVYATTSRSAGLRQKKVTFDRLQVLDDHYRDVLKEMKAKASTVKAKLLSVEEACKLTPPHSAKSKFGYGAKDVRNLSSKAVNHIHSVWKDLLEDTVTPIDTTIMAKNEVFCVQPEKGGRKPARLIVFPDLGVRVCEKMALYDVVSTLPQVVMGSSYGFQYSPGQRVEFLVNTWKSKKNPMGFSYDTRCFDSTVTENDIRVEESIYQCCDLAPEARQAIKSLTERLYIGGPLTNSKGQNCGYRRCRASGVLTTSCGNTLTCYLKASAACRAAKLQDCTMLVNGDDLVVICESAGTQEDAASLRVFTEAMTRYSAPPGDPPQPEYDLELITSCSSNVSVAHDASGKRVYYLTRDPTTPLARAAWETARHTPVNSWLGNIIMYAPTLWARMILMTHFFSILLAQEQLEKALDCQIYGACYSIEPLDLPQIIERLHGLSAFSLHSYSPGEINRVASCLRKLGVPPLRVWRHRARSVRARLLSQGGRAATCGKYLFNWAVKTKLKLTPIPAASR

`O=C(O)c1ccc2c(C3CCCCC3)c3n(c2c1)CCOc1c(CCN2CCCCC2)cccc1-3` [Example 2-464, 12-cyclohexyl-4-[2-(piperidin-1-yl)ethyl]-6,7-dihydro-5-oxa-7a-azadibenzo[a,e]azulene-9-carboxylic acid monohydrochloride] and `O=C(O)c1ccc2c(C3CCCCC3)c3n(c2c1)CCOc1c(NCCN2CCCCC2)cccc1-3` [Example 2-478, 12-cyclohexyl-4-[2-(piperidin-1-yl)ethylamino]-6,7-dihydro-5-oxa-7a-azadibenzo[a,e]azulene-9-carboxylic acid dihydrochloride] cannot be ordered by IC50: < 100 nM for the first, < 100 nM for the second.

`CC(C)(C)OC(=O)N1CCC(OCCOc2cccc3c2OCCn2c-3c(C3CCCCC3)c3ccc(C(=O)O)cc32)CC1` [Example 2-465, 4-[2-(1-tert-butoxycarbonylpiperidin-4-yloxy)ethoxy]-12-cyclohexyl-6,7-dihydro-5-oxa-7a-azadibenzo[a,e]azulene-9-carboxylic acid] and `CN1CCC(OCCOc2cccc3c2OCCn2c-3c(C3CCCCC3)c3ccc(C(=O)O)cc32)CC1` [Example 2-467, 12-cyclohexyl-4-[2-(1-methylpiperidin-4-yloxy)ethoxy]-6,7-dihydro-5-oxa-7a-azadibenzo[a,e]azulene-9-carboxylic acid monohydrochloride] cannot be ordered by IC50: < 100 nM for the first, < 100 nM for the second.

`O=C(O)c1ccc2c(C3CCCCC3)c3n(c2c1)CCOc1c(OCCOC2CCNCC2)cccc1-3` [Example 2-466, 12-cyclohexyl-4-[2-(piperidin-4-yloxy)ethoxy]-6,7-dihydro-5-oxa-7a-azadibenzo[a,e]azulene-9-carboxylic acid monohydrochloride] and `CN1CCC(N(C)CCOc2cccc3c2OCCn2c-3c(C3CCCCC3)c3ccc(C(=O)O)cc32)CC1` [Example 2-472, 12-cyclohexyl-4-{2-[N-methyl-N-(1-methylpiperidin-4-yl)amino]ethoxy}-6,7-dihydro-5-oxa-7a-azadibenzo[a,e]azulene-9-carboxylic acid trihydrochloride] cannot be ordered by IC50: < 100 nM for the first, < 100 nM for the second.

`O=C(O)c1ccc2c(C3CCCCC3)c3n(c2c1)CCOc1c(OCCC2CCN(C4CCCC4)CC2)cccc1-3` [Example 2-468, 12-cyclohexyl-4-[2-(1-cyclopentylpiperidin-4-yl)ethoxy]-6,7-dihydro-5-oxa-7a-azadibenzo[a,e]azulene-9-carboxylic acid monohydrochloride] and `CN1CCCC(Oc2cccc3c2OCCn2c-3c(C3CCCCC3)c3ccc(C(=O)O)cc32)C1` (centres unmarked) [Example 2-469, 12-cyclohexyl-4-(1-methylpiperidin-3-yloxy)-6,7-dihydro-5-oxa-7a-azadibenzo[a,e]azulene-9-carboxylic acid monohydrochloride] cannot be ordered by IC50: < 100 nM for the first, < 100 nM for the second.

`COCCN1CCCC(Oc2cccc3c2OCCn2c-3c(C3CCCCC3)c3ccc(C(=O)O)cc32)C1` (centres unmarked) [Example 2-470, 12-cyclohexyl-4-[1-(2-methoxyethyl)piperidin-3-yloxy]-6,7-dihydro-5-oxa-7a-azadibenzo[a,e]azulene-9-carboxylic acid monohydrochloride] and `COc1cccc2c1OCCn1c-2c(C2CCCCC2)c2ccc(C(=O)O)cc21` [Example 2-475, 12-cyclohexyl-4-methoxy-6,7-dihydro-5-oxa-7a-azadibenzo[a,e]azulene-9-carboxylic acid] cannot be ordered by IC50: < 100 nM for the first, < 100 nM for the second.

`O=C(O)c1ccc2c(C3CCCCC3)c3n(c2c1)CCOc1c(OCc2cc(N4CCCC4=O)ccc2N2CCOCC2)cccc1-3` [Example 2-471, 12-cyclohexyl-4-[2-(morpholin-4-yl)-5-(2-oxopyrrolidin-1-yl)benzyloxy]-6,7-dihydro-5-oxa-7a-azadibenzo[a,e]azulene-9-carboxylic acid monohydrochloride] and `Nc1cccc2c1OCCn1c-2c(C2CCCCC2)c2ccc(C(=O)O)cc21` [Example 2-476, 4-amino-12-cyclohexyl-6,7-dihydro-5-oxa-7a-azadibenzo[a,e]azulene-9-carboxylic acid] cannot be ordered by IC50: < 100 nM for the first, < 100 nM for the second.

First: COC(=O)c1ccc2c(C3CCCCC3)c3n(c2c1)CCOc1c(OCC(=O)O)cccc1-3 [Example 2-473, methyl 4-carboxymethoxy-12-cyclohexyl-6,7-dihydro-5-oxa-7a-azadibenzo[a,e]azulene-9-carboxylate]
Second: O=C(O)c1ccc2c(C3CCCCC3)c3n(c2c1)CCOc1c-3cccc1[N+](=O)[O-] [Example 2-477, 12-cyclohexyl-4-nitro-6,7-dihydro-5-oxa-7a-azadibenzo[a,e]azulene-9-carboxylic acid]
The IC50 of the first is higher: 100 to 1000 nM for the first, < 100 nM for the second.

`CN(CCN1CCCCC1)c1cccc2c1OCCn1c-2c(C2CCCCC2)c2ccc(C(=O)O)cc21` [Example 2-474, 12-cyclohexyl-4-(N-methyl-N-[2-(piperidin-1-yl)ethyl]amino}-6,7-dihydro-5-oxa-7a-azadibenzo[a,e]azulene-9-carboxylic acid dihydrochloride] and `CCN(CCN1CCCCC1)c1cccc2c1OCCn1c-2c(C2CCCCC2)c2ccc(C(=O)O)cc21` [Example 2-480, 12-cyclohexyl-4-{N-ethyl-N-[2-(piperidin-1-yl)ethyl]amino}-6,7-dihydro-5-oxa-7a-azadibenzo[a,e]azulene-9-carboxylic acid dihydrochloride] cannot be ordered by IC50: < 100 nM for the first, < 100 nM for the second.

`Cc1ccc2c(c1)OCCn1c-2c(C2CCCCC2)c2ccc(C(=O)O)cc21` [Example 2-479, 12-cyclohexyl-3-methyl-6,7-dihydro-5-oxa-7a-azadibenzo[a,e]azulene-9-carboxylic acid] and `O=C(O)c1ccc2c(C3CCCCC3)c3n(c2c1)CCOc1cccc(F)c1-3` [Example 2-484, 12-cyclohexyl-1-fluoro-6,7-dihydro-5-oxa-7a-azadibenzo[a,e]azulene-9-carboxylic acid] cannot be ordered by IC50: < 100 nM for the first, < 100 nM for the second.

`CCCN(CCN1CCCCC1)c1cccc2c1OCCn1c-2c(C2CCCCC2)c2ccc(C(=O)O)cc21` [Example 2-481, 12-cyclohexyl-4-{N-[2-(piperidin-1-yl)ethyl]-N-propylamino}-6,7-dihydro-5-oxa-7a-azadibenzo[a,e]azulene-9-carboxylic acid dihydrochloride] and `COCCN(CCN1CCCCC1)c1cccc2c1OCCn1c-2c(C2CCCCC2)c2ccc(C(=O)O)cc21` [Example 2-482, 12-cyclohexyl-4-{N-(2-methoxyethyl)-N-[2-(piperidin-1-yl)ethyl]amino}-6,7-dihydro-5-oxa-7a-azadibenzo[a,e]azulene-9-carboxylic acid dihydrochloride] cannot be ordered by IC50: < 100 nM for the first, < 100 nM for the second.

`CN(C)c1cccc2c1OCCn1c-2c(C2CCCCC2)c2ccc(C(=O)O)cc21` [Example 2-483, 12-cyclohexyl-4-dimethylamino-6,7-dihydro-5-oxa-7a-azadibenzo[a,e]azulene-9-carboxylic acid] and `CN(CC(=O)N1CCCCC1)c1cccc2c1OCCn1c-2c(C2CCCCC2)c2ccc(C(=O)O)cc21` [Example 2-486, 12-cyclohexyl-4-{N-methyl-N-[2-oxo-2-(piperidin-1-yl)ethyl]amino}-6,7-dihydro-5-oxa-7a-azadibenzo[a,e]azulene-9-carboxylic acid] cannot be ordered by IC50: < 100 nM for the first, < 100 nM for the second.

`CC(=O)N(CCN1CCCCC1)c1cccc2c1OCCn1c-2c(C2CCCCC2)c2ccc(C(=O)O)cc21` [Example 2-485, 4-{N-acetyl-N-[2-(piperidin-1-yl)ethyl]amino}-12-cyclohexyl-6,7-dihydro-5-oxa-7a-azadibenzo[a,e]azulene-9-carboxylic acid] and `COc1ccc2c(c1)OCCn1c-2c(C2CCCCC2)c2ccc(C(=O)NC3(C(=O)Nc4ccc(S(=O)(=O)O)cc4)CCC3)cc21` [Example 2-523, 4-({1-[(12-cyclohexyl-3-methoxy-6,7-dihydro-5-oxa-7a-azadibenzo[a,e]azulene-9-carbonyl)amino]cyclobutanecarbonyl}amino)benzenesulfonic acid] cannot be ordered by IC50: < 100 nM for the first, < 100 nM for the second.

`COc1ccc2c(c1)OCCn1c-2c(C2CCCCC2)c2ccc(C(=O)N[C@@H](Cc3ccc(O)cc3)C3=NC(C)(C)C(=O)O3)cc21` [Example 2-524, N—[(S)-1-(4,4-dimethyl-5-oxo-4,5-dihydrooxazol-2-yl)-2-(4-hydroxyphenyl)ethyl]-12-cyclohexyl-3-methoxy-6,7-dihydro-5-oxa-7a-azadibenzo[a,e]azulene-9-carboxamide] and `COc1ccc2c(c1)OCCn1c-2c(C2CCCCC2)c2ccc(C(=O)N[C@@H](Cc3ccc(O)cc3)c3n[nH]c(C)n3)cc21` [Example 2-526, N—[(S)-2-(4-hydroxyphenyl)-1-(5-methyl-1H-1,2,4-triazol-3-yl)ethyl]-12-cyclohexyl-3-methoxy-6,7-dihydro-5-oxa-7a-azadibenzo[a,e]azulene-9-carboxamide] cannot be ordered by IC50: < 100 nM for the first, < 100 nM for the second.

`COc1ccc2c(c1)OCCn1c-2c(C2CCCCC2)c2ccc(C(=O)N[C@@H](Cc3ccc(OCc4ccccc4)cc3)c3n[nH]c(C)n3)cc21` [Example 2-525, N—[(S)-2-(4-benzyloxyphenyl)-1-(5-methyl-1H-1,2,4-triazol-3-yl)ethyl]-12-cyclohexyl-3-methoxy-6,7-dihydro-5-oxa-7a-azadibenzo[a,e]azulene-9-carboxamide] and `CNC(=O)COc1ccc2[nH]c(C3(NC(=O)c4ccc5c(C6CCCCC6)c6n(c5c4)CCOc4cc(OC)ccc4-6)CCC3)nc2c1` [Example 2-527, N-[1-(5-methylcarbamoylmethoxy-1H-benzimidazol-2-yl)cyclobutyl]-12-cyclohexyl-3-methoxy-6,7-dihydro-5-oxa-7a-azadibenzo[a,e]azulene-9-carboxamide] cannot be ordered by IC50: < 100 nM for the first, < 100 nM for the second.

With `COc1ccc2c(c1)OCCn1c-2c(C2CCCCC2)c2ccc(C(=O)NC3(C(=O)Nc4ccc(/C=C(\C)C(=O)O)cc4)CCC3)cc21` [Example 2-528, (E)-3-[4-({1-[(12-cyclohexyl-3-methoxy-6,7-dihydro-5-oxa-7a-azadibenzo[a,e]azulene-9-carbonyl)amino]cyclobutanecarbonyl}amino)phenyl]-2-methylacrylic acid] the IC50 was < 100 nM.
